How the values were obtained:
[1] = test system: binding of HL60 cells to COS/PADGEM cells; test: COS cell-PADGEM adhesion assay with labelled HL60 cells; assay type: cell-based, human; details: for inhibition of binding of radiolabeled HL60 cells to COS/PADGEM cells: 111In activity, FIG. 7; for inhibition of binding of fluorescently labeled HL60 cells to COS/PADGEM cells: scored morphologically in a blind assay
Description: COS cells (1×10^5) were transfected with 40 μg of the resulting PADGEM expression vector by calcium phosphate precipitation. Coverslips (12×12 mm) were added to each culture. After 48 hours of growth in DMEM--10% fetal calf serum, the COS cells were confluent.
HL60 cells (1×10^7), maintained in culture, were washed and resuspended in 0.5 ml of serum-free RPMI 1640. The cells were labeled with 270 μCi of ^111 In oxine (Callow et al., Arch. Surg., 117: 1447-1455 (1982)) and 10 μg of bis-carboxyethyl-carboxyfluorescein (Kolber et al., J. Immunol. Meth., 108: 255-264 (1988)) by incubation at 37° C. for 30 minutes. After washing with RPMI 1640--1% bovine serum albumin, the cells (1×10^6) were incubated with the coverslips containing confluent COS cell transfectants, in the presence or absence of LNF isomers, for 20 minutes at 37° C. The coverslips were washed with RPMI 1640, and duplicate coverslips were assayed for ^111 In activity. Alternatively, samples were evaluated for HL60 cell adherence by fluorescence and phase-contrast microscopy using a Zeiss Axioscope microscope in a blind assay. Inhibition of the binding of COS/PADGEM cells to U937 cells by the antibody 80H5 was performed in experiments identical to the procedure described above.
The results of a COS cell-PADGEM adhesion assay, in which the binding of ^111 In and bis-carboxyethyl-carboxyfluorescein-lableled HL60 cells to COS/PADGEM cells was monitored by assaying ^111 In activity (Example 2), are shown in FIG. 7. […] The inhibitory effect of LNF II was more apparent when the LNF to PADGEM ratio was high. […] It is possible that minor contamination of the LNF II preparation with LNF III can account for the inhibitory activity observed.
The inhibitory effects of LNF I, II, and III on the interaction of HL60 cells and COS/PADGEM was also studied morphologically in a blind assay. In these experiments, the binding of fluorescently labeled HL60 cells to COS/PADGEM cells was scored (Example 2).

[2] = test system: adherence of activated platelets to neutrophils (PADGEM-mediated); test: Phase-contrast cell adhesion assay: thrombin-activated platelets with neutrophils; assay type: cell-based, human; details: LNF isomers; direct cell adhesion assay; FIG. 6
Description: Platelets were isolated by gel filtration from fresh anticoagulated blood obtained from normal human donors (Hsu-Lin et al., J. Biol. Chem., 259: 9121-9126 (1984)). Activated platelets were prepared by incubating cells without stirring for 20 minutes at 22° C. with thrombin at a final concentration of 0.25 U/ml. Fresh platelets were used in cell adhesion assays within 30 minutes of preparation.
Neutrophils were prepared by the method of English and Anderson (J. Immunol. Method, 5: 249-252 (1974)). The neutrophil preparations were greater than 95% pure by light microscopy. Monocytes were prepared by washing the mono-nuclear leukocyte fraction twice with human serum-5 mM EDTA and incubating the cells in RPMI 1640--10% fetal calf serum in sterile […] dishes for 2 hours at 37° C. The dishes were washed three times with PBS at 37° C. to remove nonadherent cells. PBS at 0° C. was added, and the cells were incubated at 4° C. for 1 hour. Adherent cells were gently detached with a rubber policeman, washed in PBS, and resuspended in RPMI 1640--1% fetal calf serum. Lymphocytes were obtained by washing the nonadherent cells with PBS and resuspending these cells in RPMI 1640--1% fetal calf serum. The purity of these preparations was established to be greater than 90% by light microscopy using Wright esterase and nonspecific esterase stains.
Twenty microliters of platelet suspension (2×10^8 /ml) was mixed with 20 μl of cell suspension (2×10^6 /ml) and incubated for 20 minutes at 22° C. in a microfuge tube. An aliquot of the cell suspension was then in a Neubauer chamber and evaluated by light microscropy using an Olympus model BH-2 microscope. Three samples from each assay were evaluated by counting 200 cells and scoring the percentage of cells with two or more adherent platelets (Jungi et al., Blood 67: 629-636 (1986)). Antibody inhibition studies were performed by preincubating cells (20 μl; 3×10^6 /ml) with 20 μl of antibody solution for 20 minutes at 22° C. Subsequently, 20 μl of platelet suspension was added, and the mixture was incubated for 20 minutes at 22° C. Samples were analyzed as above.
To identify the PADGEM recognition site on leukocytes that mediates the binding of activated platelets, monoclonal antibodies directed at various antigens on the surface of monocytes and neutrophils were tested for their ability to inhibit the interaction of these cells with activated platelets, using the phase-contrast cell adhesion assay described in Example 2 (FIG. 1 and FIG. 2). The antibodies were raised against various leukocytes and myeloid cell lines and are directed at leukocyte antigens. […] The percentage of cells displaying two or more adherent platelets was determined as described in Example 2.

[3] = test system: ELAM-mediated binding of HL60 cells to CHO-ELAM cells; test: CHO-ELAM adhesion assay with tritiated HL60 cells; assay type: cell-based; details: Homo sapiens, HL-60, done once only, read-out: decrease of ELAM-mediated binding; for inhibition at 500 µM: 0.5 mM; for inhibition at 250 µM: 0.25 mM
Excerpt: (§1) Chinese hamster ovary cells (CHO-DUKX) were transfected with cDNA encoding ELAM or PADGEM to make CHO-ELAM and CHO-PADGEM cells. Each of the following cell types, Chinese hamster ovary cells-DUKX (CHO-DUKX), Chinese hamster ovary cells transfected with cDNA for ELAM (CHO-ELAM) and Chinese hamster ovary cells transfected with cDNA for PADGEM (CHO-PADGEM), were separately plated at a density of 6×10^4 cells per milliliter of medium into Costar 48 well culture plates. On the following day, HL60 cells in culture were sedimented by centrifugation and resuspended in medium (RPMI, 10% fetal calf serum) to a density of 5×10^5 cells/ml. Tritiated thymidine (5 μCi per milliliter) was added to the HL60 cell suspension and the cells were grown overnight. The following day the HL60 cells were washed thrice in serum free RPMI and resuspended in a volume of 5 mls of RPMI. After assuring that the free tritium in the cell suspension is no more than 10% of the cell associated tritium, the cell count of the cell suspension was established and the cell density was adjusted to 1×10^6 cells per milliliter.
(§2) To perform the assay medium was aspirated from the CHO cells, CHO-ELAM cells and CHO-PADGEM cells. The wells containing these cells were rinsed with 1 ml of serum free RPMI. HL60 cells were preincubated for 10 minutes with the test sugar at the concentrations indicated. Aliquots of these HL60 cells (100,000 to 300,000 cells) were then added to individual wells containing CHO cells of the various types and the two cell populations incubated together for 30 minutes at room temperature. Unbound HL60 cells were removed by aspiration and the wells were washed thrice with serum free RPMI. The adherent CHO cells and any bound HL60 cells were detached from the surface of the wells with 250 μl of phosphate buffered saline containing 1 mM EDTA. An aliquot of the detached cells (200 μl) was analyzed for tritium content in a β-scintillation counter. The level of nonspecific binding of tritiated HL60 cells was taken as the level of binding seen in the wells containing the CHO-DUKX cells (parent cell line of CHO-PADGEM and CHO-ELAM transfectants). This value was subtracted from the level of tritiated HL60 cells bound in wells containing CHO-ELAM or CHO-PADGEM cells. The decrease in binding induced by the presence of the sugar was determined by comparing the level of binding of HL60 cells in the presence of the sugar to that observed in its absence.
(§3) Additional sugars were tested for inhibition of PADGEM- and ELAM-mediated interactions using the CHO-PADGEM and CHO-ELAM adhesion assay described in Example 2. The following sugars were tested at a single concentration: […]

[4] = test system: PADGEM-mediated binding of HL60 cells to CHO-PADGEM transfectants; test: CHO-PADGEM adhesion assay with tritiated HL60 cells; assay type: cell-based; details: done once only
Excerpt: as §1, §2, §3

[5] = test system: PADGEM; details: literature reports; cited from earlier work

With `CC(=O)N[C@H]1[C@H](O[C@H]2[C@@H](O)[C@@H](CO)O[C@@H](O[C@H]3[C@H](O)[C@@H](O)C(O)O[C@@H]3CO)[C@@H]2O)O[C@H](CO)[C@@H](O[C@@H]2O[C@@H](C)[C@@H](O)[C@@H](O)[C@@H]2O)[C@@H]1O[C@@H]1O[C@H](CO)[C@H](O)[C@H](O)[C@H]1O` (some centres unmarked) [LNF II, Galβ1-3(Fucα1-4)GlcNAcβ1-3Galβ1-4Glc] the “inhibition of binding of radiolabeled HL60 cells to COS/PADGEM cells” value [1] was “only a small inhibitory effect”, the “inhibition of binding of fluorescently labeled HL60 cells to COS/PADGEM cells” value [1] was “no inhibitory activity” and the “inhibitory activity on adherence of activated platelets to neutrophils” value [2] was “neither LNF I (open squares) nor LNF II (closed circles) had inhibitory activity”.

For `CC(=O)NC1C(O)CC(OC2C(O)C(CO)OC(OC3C(CO)OC(O)C(O)C3O)C2O)(C(=O)O)OC1C(O)C(O)CO` (centres unmarked) [3'-sialyllactose, NeuAcα2-3Galβ1-4Glc], the inhibition at 500 µM [3] was ≤ 10% and the “inhibition of PADGEM-mediated binding of HL60 cells to CHO-PADGEM transfectants” value (shortened to “inhibition … to CHO-PADGEM transfectants”) ([4]; 0.5 mM) was “none of the four sugars tested appreciably inhibited”.

For heparin, the “inhibition of PADGEM-mediated binding of activated platelets to leukocytes” value (“inhibition … to leukocytes” below) [5] is given as “inhibited”.

With `CC(=O)NC1C(O)CC(OCC2OC(OC3C(CO)OC(O)C(O)C3O)C(O)C(O)C2O)(C(=O)O)OC1C(O)C(O)CO` (centres unmarked) [6'-sialyllactose, NeuAcα2-6Galβ1-4Glc] the inhibition at 500 µM [3] was ≤ 10% and the “inhibition … to CHO-PADGEM transfectants” value ([4]; 0.5 mM) was “none of the four sugars tested appreciably inhibited”.

For `CC(=O)N[C@H]1[C@H](O[C@H]2[C@@H](O)[C@@H](CO)O[C@@H](O[C@H]3[C@H](O)[C@@H](O)C(O)O[C@@H]3CO)[C@@H]2O)O[C@H](CO)[C@@H](O)[C@@H]1O[C@@H]1O[C@H](CO)[C@H](O)[C@H](O)[C@H]1O[C@@H]1O[C@@H](C)[C@@H](O)[C@@H](O)[C@@H]1O` (some centres unmarked) [LNF I, Fucα1-2Galβ1-3GlcNAcβ1-3Galβ1-4Glc], the “inhibition of binding of radiolabeled HL60 cells to COS/PADGEM cells” value [1] was “did not inhibit”, the “inhibition of binding of fluorescently labeled HL60 cells to COS/PADGEM cells” value [1] was “no inhibitory activity” and the “inhibitory activity on adherence of activated platelets to neutrophils” value [2] was “neither LNF I (open squares) nor LNF II (closed circles) had inhibitory activity”.

In the case of fucoidin, the “inhibition … to leukocytes” value [5] is listed as “inhibited”.

For `C[C@@H]1O[C@@H](O[C@H]2[C@H](O[C@@H]3O[C@H](CO)[C@H](O)[C@H](O)[C@H]3O)[C@@H](CO)OC(O)[C@@H]2O)[C@@H](O)[C@H](O)[C@@H]1O` (some centres unmarked) [3-fucosyllactose, Galβ1-4[Fucα1-3]Glc], the inhibition at 250 µM [3] was ≤ 10% and the “inhibition … to CHO-PADGEM transfectants” value ([4]; 0.25 mM) was “none of the four sugars tested appreciably inhibited”.

For `CC(=O)NC1C(O)CC(OC2C(O)C(CO)OC(OC3C(CO)OC(O)C(O)C3OC3OC(C)C(O)C(O)C3O)C2O)(C(=O)O)OC1C(O)C(O)CO` (centres unmarked) [3'-sialyl-3-fucosyllactose, NeuAcα2-3Galβ1-4[Fucα1-3]Glc], the inhibition at 250 µM [3] was 50 to 60% and the “inhibition … to CHO-PADGEM transfectants” value ([4]; 0.25 mM) was “none of the four sugars tested appreciably inhibited”.

B1: purified PADGEM: purified platelet activation dependent granule-external membrane protein (protein, UniProt P16109 42-830, looked up)
P-selectin: WTYHYSTKAYSWNISRKYCQNRYTDLVAIQNKNEIDYLNKVLPYYSSYYWIGIRKNNKTWTWVGTKKALTNEAENWADNEPNNKRNNEDCVEIYIKSPSAPGKWNDEHCLKKKHALCYTASCQDMSCSKQGECLETIGNYTCSCYPGFYGPECEYVRECGELELPQHVLMNCSHPLGNFSFNSQCSFHCTDGYQVNGPSKLECLASGIWTNKPPQCLAAQCPPLKIPERGNMTCLHSAKAFQHQSSCSFSCEEGFALVGPEVVQCTASGVWTAPAPVCKAVQCQHLEAPSEGTMDCVHPLTAFAYGSSCKFECQPGYRVRGLDMLRCIDSGHWSAPLPTCEAISCEPLESPVHGSMDCSPSLRAFQYDTNCSFRCAEGFMLRGADIVRCDNLGQWTAPAPVCQALQCQDLPVPNEARVNCSHPFGAFRYQSVCSFTCNEGLLLVGASVLQCLATGNWNSVPPECQAIPCTPLLSPQNGTMTCVQPLGSSSYKSTCQFICDEGYSLSGPERLDCTRSGRWTDSPPMCEAIKCPELFAPEQGSLDCSDTRGEFNVGSTCHFSCDNGFKLEGPNNVECTTSGRWSATPPTCKGIASLPTPGVQCPALTTPGQGTMYCRHHPGTFGFNTTCYFGCNAGFTLIGDSTLSCRPSGQWTAVTPACRAVKCSELHVNKPIAMNCSNLWGNFSYGSICSFHCLEGQLLNGSAQTACQENGHWSTTVPTCQAGPLTIQEALTYFGGAVASTIGLIMGGTLLALLRKRFRQKDDGKCPLNPHSHLGTYGVFTNAAFDPSP
In the case of B1, the “inhibition … to leukocytes” value [5] is listed as “inhibited”.

Reference: patent US5807745A, “Method of inhibiting PADGEM-mediated or ELAM-1-mediated leukocyte adhesion using an inhibitor comprising a Le^x core component” (New England Medical Center Hospitals, Inc., priority 1995, dated 1998)
